Laboratory results reported in ChEMBL document CHEMBL1201862, “PubChem BioAssay data set” (2004).
Active and inactive are the calls of the source.

Columns and labels:
[1] = molecular target: T1, Runt-related transcription factor 1/Core-binding factor subunit beta (Homo sapiens, UniProt Q01196+Q13951); test: disruptors of Runt domain/CBFb-SMMHC interaction – biochemical, FRET, Cerulean-Runt, Venus-CBFb-SMMHC, uHTS, […] (AID 1434); format: protein assay
[2] = molecular target: T1, Runt-related transcription factor 1/Core-binding factor subunit beta; test: Runt domain/CBFb-SMMHC interaction disruptors – biochemical, TR-FRET (AID 1438); format: protein assay
[3] = molecular target: T2, Endoribonuclease toxin MazF (Escherichia coli K-12, UniProt P0AE70); test: activation of MazEF endoribonuclease cleavage – biochemical, fluorescence, single-stranded RNA substrate, uHTS hits, dose response (AID 588481); format: functional
T2 sequence (P0AE70 whole entry): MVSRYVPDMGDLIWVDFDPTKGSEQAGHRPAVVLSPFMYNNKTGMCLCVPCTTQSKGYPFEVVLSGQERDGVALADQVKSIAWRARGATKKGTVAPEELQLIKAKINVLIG

[4] = molecular target: T2, Endoribonuclease toxin MazF; test: substrate-only fluorescence increase artefacts – biochemical, single-stranded RNase substrate, counter-screen for MazEF activator project, dose response (AID 588502); format: functional
[5] = molecular target: T3, Voltage-gated N-type calcium channel alpha-1B subunit/Amyloid beta A4 precursor protein-binding family A member 1 (Homo sapiens, UniProt Q00975+Q02410); format: protein assay
[6] = molecular target: T3, Voltage-gated N-type calcium channel alpha-1B subunit/Amyloid beta A4 precursor protein-binding family A member 1; format: protein assay; remark: listed apart in the source
HeLa = test: ATP-based viability loss in HeLa cells – cell-based, CellTiter-Glo luminescence, cherry-pick samples, cytotoxicity control for MITF activator project, dose response (AID 540259); format: functional; settings: Homo sapiens
[7] = molecular target: Potassium voltage-gated channel subfamily KQT member 2 (Rattus norvegicus, UniProt O88943); test: potentiation of rat KCNQ2 current – cell-based, retigabine-insensitive compounds, dose response (AID 2654); format: functional
[8] = molecular target: T4, Corticotropin-releasing factor receptor 2/Corticotropin-releasing factor-binding protein (Homo sapiens, UniProt P24387+Q13324); test: Dose Response confirmation of uHTS hits for small molecule antagonists of the CRF-binding protein and CRF-R2 receptor complex.; format: functional; settings: read-out: IC50_Mean
T4 sequence (Q13324 whole entry): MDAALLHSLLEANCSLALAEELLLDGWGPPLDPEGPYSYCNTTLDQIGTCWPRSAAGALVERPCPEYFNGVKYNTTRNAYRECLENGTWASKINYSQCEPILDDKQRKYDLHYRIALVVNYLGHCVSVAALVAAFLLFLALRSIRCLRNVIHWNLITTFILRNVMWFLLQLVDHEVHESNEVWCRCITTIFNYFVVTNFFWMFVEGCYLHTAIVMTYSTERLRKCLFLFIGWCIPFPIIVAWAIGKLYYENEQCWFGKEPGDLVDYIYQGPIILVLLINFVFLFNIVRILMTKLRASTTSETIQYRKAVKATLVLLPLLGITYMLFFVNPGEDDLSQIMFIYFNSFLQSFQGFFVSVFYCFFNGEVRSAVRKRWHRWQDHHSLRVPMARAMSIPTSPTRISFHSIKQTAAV
T4 sequence (P24387 whole entry): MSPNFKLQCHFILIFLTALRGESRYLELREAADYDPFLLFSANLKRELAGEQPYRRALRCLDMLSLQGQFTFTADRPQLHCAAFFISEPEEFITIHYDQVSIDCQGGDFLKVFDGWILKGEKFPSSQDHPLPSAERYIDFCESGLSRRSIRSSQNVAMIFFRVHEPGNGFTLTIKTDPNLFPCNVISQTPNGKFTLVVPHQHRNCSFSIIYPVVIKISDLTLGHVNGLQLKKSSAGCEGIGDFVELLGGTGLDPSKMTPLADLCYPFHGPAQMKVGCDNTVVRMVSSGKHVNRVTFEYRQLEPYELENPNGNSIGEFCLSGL

[9] = molecular target: T4, Corticotropin-releasing factor receptor 2/Corticotropin-releasing factor-binding protein; test: activators of CRF receptor 2 with binding protein – uHTS hits, confirmation (AID 602473); format: functional; settings: read-out: EC50_Mean
[10] = molecular target: T5, Polyadenylate-binding protein 1 (Homo sapiens, UniProt P11940); test: MLLE binding blockers, Cy5 peptide tracer – biochemical, fluorescence polarization, Cy5-PAM2 peptide, secondary, miRNA deadenylation inhibitor project, dose response (AID 602260); format: functional; settings: read-out: IC50_Mean
[11] = molecular target: T5, Polyadenylate-binding protein 1; test: MLLE domain peptide-binding blockers, IC50 – biochemical, fluorescence polarization, FITC-PAM2 peptide, dose response (AID 602259); format: functional; settings: read-out: IC50_Mean
[12] = molecular target: T6, Rac GTPase-activating protein 1 (Homo sapiens, UniProt Q9H0H5); test: blockers of MgcRacGAP-driven Rac1 GTP hydrolysis – biochemical, ADP Hunter fluorescence, primary and confirmatory, confirmation (AID 624330); format: functional
T6 sequence (Q9H0H5 whole entry): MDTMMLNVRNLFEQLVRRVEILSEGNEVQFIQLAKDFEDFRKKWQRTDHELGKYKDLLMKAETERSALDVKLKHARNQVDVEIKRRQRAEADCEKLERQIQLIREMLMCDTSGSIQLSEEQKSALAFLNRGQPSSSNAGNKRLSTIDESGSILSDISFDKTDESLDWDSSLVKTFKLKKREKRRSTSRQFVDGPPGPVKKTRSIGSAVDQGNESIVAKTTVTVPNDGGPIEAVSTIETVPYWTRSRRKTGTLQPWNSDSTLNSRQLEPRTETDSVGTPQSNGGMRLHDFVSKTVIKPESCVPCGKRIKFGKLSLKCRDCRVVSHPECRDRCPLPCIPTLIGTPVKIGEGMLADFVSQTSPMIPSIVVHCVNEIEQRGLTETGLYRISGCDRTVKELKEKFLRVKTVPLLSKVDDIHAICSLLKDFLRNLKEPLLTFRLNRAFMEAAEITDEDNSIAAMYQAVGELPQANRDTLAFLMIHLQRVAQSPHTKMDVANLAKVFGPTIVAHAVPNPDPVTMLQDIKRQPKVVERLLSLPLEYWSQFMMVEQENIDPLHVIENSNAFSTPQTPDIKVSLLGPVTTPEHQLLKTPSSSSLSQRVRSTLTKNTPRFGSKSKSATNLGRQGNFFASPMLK

[13] = NIH-3T3 fibroblast cytotoxicity, dose response, cytotoxicity control, cell-based, fluorescence, Alamar Blue, secondary assay (AID 2327); format: functional;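 note: NIH-3T3 mouse fibroblasts cultured with fluconazole at 8 µg/mL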
[14] = tested on: Streptococcus sp. 'group A'; test: Streptococcus pyogenes SK(-)GAS viability under kanamycin – luminescence, BacTiterGlo, confirmation, counter-screen for streptokinase expression inhibitor project, dose response (AID 1900); format: functional, organism-based
[15] = fluconazole-exposed Candida albicans growth modulators – fluorescence, retest, confirmation (AID 2467); format: functional, cell-based
[16] = molecular target: T7, Serine/threonine-protein phosphatase (Candida dubliniensis (strain CD36 / CBS 7987 / NCPF 3949 / NRRLY-17841) (Yeast), UniProt B9W6M3); test: blockers of CaCl2-induced CDRE-lacZ signaling – S. cerevisiae, luminescence, secondary, dose response (AID 2388); format: functional, cell-based;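 note: yeast reporter cells carrying a calcineurin-responsive lacZ construct stimulated with calcium chloride; luminescent beta-galactosidase reporter signal in whole cells rather than isolated phosphatase activity; potency for inhibition where a drop in reporter signal means calcineurin blockade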
T7 sequence (B9W6M3 whole entry): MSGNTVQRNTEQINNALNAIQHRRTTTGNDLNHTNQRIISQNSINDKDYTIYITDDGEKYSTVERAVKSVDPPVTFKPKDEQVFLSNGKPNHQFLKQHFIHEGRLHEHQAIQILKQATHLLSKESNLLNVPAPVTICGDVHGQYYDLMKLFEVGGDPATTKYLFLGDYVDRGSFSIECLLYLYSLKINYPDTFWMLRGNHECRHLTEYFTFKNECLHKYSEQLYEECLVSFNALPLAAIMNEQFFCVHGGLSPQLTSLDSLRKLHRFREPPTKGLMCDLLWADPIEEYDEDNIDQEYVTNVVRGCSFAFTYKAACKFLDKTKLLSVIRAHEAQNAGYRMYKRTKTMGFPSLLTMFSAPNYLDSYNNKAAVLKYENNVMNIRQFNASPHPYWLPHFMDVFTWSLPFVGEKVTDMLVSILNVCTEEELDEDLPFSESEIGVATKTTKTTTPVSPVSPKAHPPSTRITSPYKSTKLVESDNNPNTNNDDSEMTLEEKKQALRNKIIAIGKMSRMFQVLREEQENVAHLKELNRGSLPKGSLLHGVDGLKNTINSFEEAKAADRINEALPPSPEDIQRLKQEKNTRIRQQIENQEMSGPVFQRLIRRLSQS

Streptococcus = test: GAS UMAA2166 growth inhibition – luminescence, BacTiterGlo, counter-screen for streptokinase expression inhibitor project, dose response (AID 1915); format: functional, organism-based;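 note: potency for reduction of bacterial viability or growth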
[17] = molecular target: Voltage-dependent T-type calcium channel subunit alpha-1H (Homo sapiens, UniProt O95180); format: functional;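 note: channel activity triggered by adding a high calcium stimulation buffer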
[18] = molecular target: ATP-dependent molecular chaperone HSP82 (Candida albicans (strain WO-1) (Yeast), UniProt C4YTQ8); test: steroid-induced GRE reporter decrease in yeast – S. cerevisiae, luminescence, Hsp90 inhibitor project, dose response (AID 2400); format: functional, cell-based;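 note: beta-galactosidase luminescence from glucocorticoid response element reporter as proxy for Hsp90 function; inhibitor potency where signal loss means Hsp90 inhibition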
cells [19] = format: functional, cell-based
[20] = Trypanosoma cruzi growth suppression in host cells – NIH3T3 host cells, beta-gal luminescence, confirmation (AID 2044); format: functional, cell-based;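 note: intracellular parasites grown in NIH/3T3 mouse fibroblasts as host cells; luminescent beta-galactosidase reporter signal from transgenic T. cruzi replicating inside host cells; inhibitors lower the luminescence signal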
cells [21] = format: functional, cell-based; remark: listed apart in the source
[22] = NIH3T3 cell viability loss – ATP luminescence, mouse fibroblasts, counter-screen, dose response (AID 2010); format: functional, cell-based;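 note: cells exposed to compound for about 90 hours before reading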
[23] = HEK-293T viability loss after treatment – luminescence, T-cell screen hits, cytotoxicity control for TCR NF-kB inhibitor project, dose response (AID 489026); format: functional, cell-based;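 note: cells exposed to compound about 14 hours before the viability readout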
[24] = molecular target: Heat shock protein HSP 90-alpha (Homo sapiens, UniProt P07900); format: functional, organism-based
Large T antigen = Large T antigen (Simian virus 40, UniProt P03070); format: functional, Betapolyomavirus macacae;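 note: Confirmatory-stage PubChem screen for compounds that inhibit SV40 T antigen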
[25] = molecular target: Dual specificity tyrosine-phosphorylation-regulated kinase 1A (Rattus norvegicus, UniProt Q63470); format: biochemical, Homo sapiens

T1 sequence (Q01196 whole entry, the tested form may be a part): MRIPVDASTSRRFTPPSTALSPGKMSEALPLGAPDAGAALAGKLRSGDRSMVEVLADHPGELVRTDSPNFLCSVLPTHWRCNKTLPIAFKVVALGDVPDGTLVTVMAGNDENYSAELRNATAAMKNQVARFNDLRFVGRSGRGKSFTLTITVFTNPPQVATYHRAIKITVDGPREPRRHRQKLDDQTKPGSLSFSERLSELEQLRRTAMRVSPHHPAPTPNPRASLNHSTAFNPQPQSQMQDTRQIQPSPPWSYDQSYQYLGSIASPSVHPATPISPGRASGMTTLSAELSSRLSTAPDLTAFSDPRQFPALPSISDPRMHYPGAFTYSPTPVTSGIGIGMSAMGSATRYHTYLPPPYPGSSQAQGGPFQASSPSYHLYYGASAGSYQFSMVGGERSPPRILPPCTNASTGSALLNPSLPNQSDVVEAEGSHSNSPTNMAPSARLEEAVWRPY
T1 sequence (Q13951 whole entry, the tested form may be a part): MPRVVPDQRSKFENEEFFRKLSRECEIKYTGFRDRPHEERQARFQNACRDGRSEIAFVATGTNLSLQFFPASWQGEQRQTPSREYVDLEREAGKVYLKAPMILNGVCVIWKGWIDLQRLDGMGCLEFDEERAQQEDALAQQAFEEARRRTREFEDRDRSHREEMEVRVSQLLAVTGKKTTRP
ATP-dependent molecular chaperone HSP82, sequence (C4YTQ8 whole entry): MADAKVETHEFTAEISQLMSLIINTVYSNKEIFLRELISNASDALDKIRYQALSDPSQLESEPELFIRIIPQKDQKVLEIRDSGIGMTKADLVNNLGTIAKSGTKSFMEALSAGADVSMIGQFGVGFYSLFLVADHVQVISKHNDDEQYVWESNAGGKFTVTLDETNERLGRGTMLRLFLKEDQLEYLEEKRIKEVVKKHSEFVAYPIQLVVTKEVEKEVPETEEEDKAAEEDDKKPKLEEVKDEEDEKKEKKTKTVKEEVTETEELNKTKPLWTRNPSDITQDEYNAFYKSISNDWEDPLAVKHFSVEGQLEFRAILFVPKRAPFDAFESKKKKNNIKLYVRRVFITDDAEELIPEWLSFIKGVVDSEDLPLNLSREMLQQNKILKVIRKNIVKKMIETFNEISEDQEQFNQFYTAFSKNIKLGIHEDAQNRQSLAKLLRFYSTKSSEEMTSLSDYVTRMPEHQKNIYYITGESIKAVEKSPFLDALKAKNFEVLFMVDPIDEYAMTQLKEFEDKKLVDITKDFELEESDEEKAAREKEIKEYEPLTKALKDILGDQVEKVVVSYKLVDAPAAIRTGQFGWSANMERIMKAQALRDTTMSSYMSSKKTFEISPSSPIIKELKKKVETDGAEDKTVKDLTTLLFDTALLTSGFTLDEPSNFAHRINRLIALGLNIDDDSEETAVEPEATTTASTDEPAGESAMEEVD
T3 sequence (Q00975 whole entry): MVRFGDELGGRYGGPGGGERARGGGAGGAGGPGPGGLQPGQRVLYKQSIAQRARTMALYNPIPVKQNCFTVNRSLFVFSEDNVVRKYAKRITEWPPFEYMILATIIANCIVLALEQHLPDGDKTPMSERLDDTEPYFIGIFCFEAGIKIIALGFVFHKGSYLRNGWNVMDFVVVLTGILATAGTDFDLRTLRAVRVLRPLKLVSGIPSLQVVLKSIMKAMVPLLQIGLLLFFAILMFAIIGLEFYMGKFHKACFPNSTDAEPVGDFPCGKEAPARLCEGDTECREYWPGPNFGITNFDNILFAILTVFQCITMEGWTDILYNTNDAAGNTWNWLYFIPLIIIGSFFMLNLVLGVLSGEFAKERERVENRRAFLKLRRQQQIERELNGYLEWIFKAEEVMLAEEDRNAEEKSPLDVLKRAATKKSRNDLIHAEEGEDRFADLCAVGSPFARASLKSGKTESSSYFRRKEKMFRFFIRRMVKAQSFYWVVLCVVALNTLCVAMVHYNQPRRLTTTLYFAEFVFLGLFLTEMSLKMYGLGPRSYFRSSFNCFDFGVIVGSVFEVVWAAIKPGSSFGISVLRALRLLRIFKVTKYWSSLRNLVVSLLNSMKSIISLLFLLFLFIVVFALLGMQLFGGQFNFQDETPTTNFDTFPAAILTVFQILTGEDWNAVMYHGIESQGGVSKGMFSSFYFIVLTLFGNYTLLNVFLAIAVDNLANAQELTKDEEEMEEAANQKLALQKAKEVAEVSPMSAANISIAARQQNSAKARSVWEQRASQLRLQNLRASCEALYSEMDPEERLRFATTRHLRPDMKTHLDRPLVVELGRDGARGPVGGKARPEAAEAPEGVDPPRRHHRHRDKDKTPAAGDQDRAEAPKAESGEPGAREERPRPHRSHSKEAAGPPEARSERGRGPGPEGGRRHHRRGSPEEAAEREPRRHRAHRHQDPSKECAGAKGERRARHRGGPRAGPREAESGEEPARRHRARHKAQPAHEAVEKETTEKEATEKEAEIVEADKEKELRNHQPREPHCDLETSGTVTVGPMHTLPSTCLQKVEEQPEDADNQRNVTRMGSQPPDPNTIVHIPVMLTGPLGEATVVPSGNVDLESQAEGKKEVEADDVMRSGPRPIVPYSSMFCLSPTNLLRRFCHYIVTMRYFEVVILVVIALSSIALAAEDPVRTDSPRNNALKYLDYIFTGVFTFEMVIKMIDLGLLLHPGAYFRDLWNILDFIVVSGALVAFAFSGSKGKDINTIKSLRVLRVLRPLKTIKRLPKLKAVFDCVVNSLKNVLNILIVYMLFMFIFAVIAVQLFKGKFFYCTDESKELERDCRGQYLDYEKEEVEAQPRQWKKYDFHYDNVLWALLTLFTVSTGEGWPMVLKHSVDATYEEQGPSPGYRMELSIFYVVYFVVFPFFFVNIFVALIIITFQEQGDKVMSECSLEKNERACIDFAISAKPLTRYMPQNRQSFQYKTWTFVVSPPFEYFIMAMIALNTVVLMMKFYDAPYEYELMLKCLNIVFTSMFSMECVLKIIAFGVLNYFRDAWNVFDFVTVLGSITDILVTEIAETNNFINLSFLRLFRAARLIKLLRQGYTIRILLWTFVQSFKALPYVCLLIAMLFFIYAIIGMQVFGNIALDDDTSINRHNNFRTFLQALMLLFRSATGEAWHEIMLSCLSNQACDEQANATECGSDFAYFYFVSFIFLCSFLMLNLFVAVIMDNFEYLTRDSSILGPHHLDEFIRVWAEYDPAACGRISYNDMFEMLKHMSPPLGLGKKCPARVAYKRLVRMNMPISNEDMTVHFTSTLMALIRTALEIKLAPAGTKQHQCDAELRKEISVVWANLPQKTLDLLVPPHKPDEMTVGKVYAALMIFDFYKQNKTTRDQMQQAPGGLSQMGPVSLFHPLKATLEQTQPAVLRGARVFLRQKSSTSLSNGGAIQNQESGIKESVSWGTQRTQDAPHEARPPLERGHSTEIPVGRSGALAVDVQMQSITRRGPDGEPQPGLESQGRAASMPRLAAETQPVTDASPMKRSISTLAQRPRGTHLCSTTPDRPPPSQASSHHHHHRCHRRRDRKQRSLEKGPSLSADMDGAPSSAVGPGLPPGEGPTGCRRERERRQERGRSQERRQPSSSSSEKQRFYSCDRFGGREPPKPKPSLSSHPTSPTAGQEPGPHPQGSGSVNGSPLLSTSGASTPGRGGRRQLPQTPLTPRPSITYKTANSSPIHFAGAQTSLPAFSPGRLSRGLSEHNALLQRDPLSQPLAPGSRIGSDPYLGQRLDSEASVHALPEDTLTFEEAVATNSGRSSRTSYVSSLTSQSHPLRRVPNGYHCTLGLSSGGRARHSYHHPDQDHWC
T3 sequence (Q02410 whole entry): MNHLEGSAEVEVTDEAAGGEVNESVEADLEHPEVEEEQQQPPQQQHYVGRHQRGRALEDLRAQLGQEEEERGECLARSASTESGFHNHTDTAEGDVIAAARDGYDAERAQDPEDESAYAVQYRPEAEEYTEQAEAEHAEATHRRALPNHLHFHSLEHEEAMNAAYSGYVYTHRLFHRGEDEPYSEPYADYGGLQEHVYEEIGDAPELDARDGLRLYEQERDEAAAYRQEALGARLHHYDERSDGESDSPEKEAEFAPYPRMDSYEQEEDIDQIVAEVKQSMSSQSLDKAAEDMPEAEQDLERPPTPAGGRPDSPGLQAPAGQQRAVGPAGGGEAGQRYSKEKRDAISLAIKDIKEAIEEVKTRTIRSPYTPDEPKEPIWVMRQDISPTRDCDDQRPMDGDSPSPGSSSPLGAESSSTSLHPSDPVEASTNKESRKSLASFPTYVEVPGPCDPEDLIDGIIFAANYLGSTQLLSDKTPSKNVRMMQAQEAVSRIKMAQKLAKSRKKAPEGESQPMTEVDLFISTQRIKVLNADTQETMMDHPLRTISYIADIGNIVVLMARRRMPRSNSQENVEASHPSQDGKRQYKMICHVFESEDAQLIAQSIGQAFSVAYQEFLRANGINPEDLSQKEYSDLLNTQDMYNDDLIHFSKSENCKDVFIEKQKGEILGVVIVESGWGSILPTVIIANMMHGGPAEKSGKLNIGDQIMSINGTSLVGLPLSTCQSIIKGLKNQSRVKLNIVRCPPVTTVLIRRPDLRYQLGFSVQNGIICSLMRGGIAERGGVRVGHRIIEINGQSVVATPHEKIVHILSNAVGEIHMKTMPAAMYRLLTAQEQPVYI

COc1ccc2nc(N3CCCC3)c(C#N)cc2c1
IC50 [1]: 2.04 µM (active)
IC50 [2]: > 100 µM (inactive)
EC50 [3]: > 99 µM (inactive)
EC50 [4]: > 99 µM (inactive)

O=C(CCN1C(=O)/C(=C/c2ccccc2Cl)SC1=S)NC1C=CS(=O)(=O)C1 (stereo unspecified)
IC50 [5]: 5.41 µM (active)
IC50 [6]: > 50 µM (inactive)

Cc1ccc(NC(=O)C2C3/C=C\CCCCC32)cc1 (stereo unspecified)
AC50 (HeLa): 197 µM (active)

CCCCc1ccc(NC(=S)Nc2cccnc2)cc1
EC50 [7]: 268 µM (active)
IC50 [8]: > 47.1 µM (inactive)
EC50 [9]: > 53 µM (inactive)

N#Cc1ccc(C(=O)NC2CCCCCCC2)cc1
AC50 (HeLa): 55 µM (active)

COc1cccc(Nc2ccc(N3CCCCC3)cc2)c1OC
AC50 (HeLa): 252 µM (active)
IC50 [10]: > 66 µM (inactive)
IC50 [11]: 21.4 µM (inactive)
IC50 [12]: 9.65 µM (active)

COc1ccc(-c2nnc(NC(=O)c3cc(Cl)ccc3Cl)o2)cc1
EC50 [13]: > 150 µM (inactive)
EC50 [14]: 2.64 µM (active)
EC50 [15]: 0.815 µM (active)
EC50 [16]: > 180 µM (inactive)
EC50 (Streptococcus): 7.89 µM (active)
EC50 [17]: 10.8 µM (active)
EC50 [18]: 18 µM (active)

O=C(N/N=C/c1c(O)ccc2ccccc12)c1cccc(C(F)(F)F)c1
EC50 [13]: 26.9 µM (active)
EC50 (cells [19]): 8.23 µM (active)
EC50 [15]: 0.452 µM (active)
EC50 [20]: 0.686 µM (active)
EC50 (cells [21]): > 350 µM (not active)
EC50 [16]: > 180 µM (inactive)
EC50 [22]: 6.11 µM (active)
IC50 [23]: > 80 µM (inactive)
AC50 [24]: 2.24 µM (active)
EC50 [18]: 9.34 µM (active)

N#Cc1c(-c2ccncc2)c2c([nH]c1=O)-c1ccccc1OC2
IC50 [1]: 1.04 µM (active)
IC50 [2]: > 100 µM (inactive)

O=C1NC(=O)/C(=C/c2ccc(O)cc2)S1
IC50 (Large T antigen): 10.1 µM (active)
AC50 [25]: 0.414 µM (active)
